Reference: the supplement of paper PMC6045584
± gives the standard deviation of the averaged measurements.

Tests used:
[1] = compound: CC(=O)NCC(=O)N1[C@@H]2CC[C@H]1c1ccc(Nc3ncc(C(F)(F)F)c(NC4CCC4)n3)cc12; experiment: surviving fraction relative to DMSO-only wells; higher = less growth inhibition; conditions: exposure time: 5 days
In short: (§1)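 For each tumour cell line, log-phase cells were put into 384-well plates at 250–500 cells per well, then after 24 hours exposed continuously for five days to inhibitors at 0.5, 1, 5, 10, 50, 100, 500 and 1000 nM. Viability was assessed by CellTiter-Glo luminescence, with surviving fraction expressed relative to the median of DMSO-only wells. Lines were screened three times and retained only if replicate Pearson r exceeded 0.7 and median Z' exceeded 0.3.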

[2] = compound: CC(=O)c1c(C)c2cnc(Nc3ccc(N4CCNCC4)cn3)nc2n(C2CCCC2)c1=O; experiment: as above; conditions: exposure time: 5 days
In short: as §1

Test System	surviving fraction ([1]; 0.5 nM)	surviving fraction ([1]; 1 nM)	surviving fraction ([1]; 5 nM)	surviving fraction ([1]; 10 nM)	surviving fraction ([1]; 50 nM)	surviving fraction ([1]; 100 nM)	surviving fraction ([1]; 500 nM)	surviving fraction ([1]; 1000 nM)	surviving fraction ([2]; 0.5 nM)	surviving fraction ([2]; 1 nM)	surviving fraction ([2]; 5 nM)	surviving fraction ([2]; 10 nM)	surviving fraction ([2]; 50 nM)	surviving fraction ([2]; 100 nM)	surviving fraction ([2]; 500 nM)	surviving fraction ([2]; 1000 nM)
NY BONE	0.962 ± 0.012	0.941 ± 0.029	0.9803 ± 0.0061	0.964 ± 0.03	0.69 ± 0.011	0.672 ± 0.025	0.432 ± 0.025	0.129 ± 0.0021	1.02 ± 0.024	1.03 ± 0.065	1.05 ± 0.057	1.04 ± 0.018	1.12 ± 0.023	1.06 ± 0.043	1.04 ± 0.049	1.02 ± 0.068
OS25HAL BONE	0.962 ± 0.045	0.9613 ± 0.0038	0.97 ± 0.024	0.947 ± 0.015	0.796 ± 0.062	0.605 ± 0.092	0.428 ± 0.069	0.264 ± 0.029	1.03 ± 0.032	1.01 ± 0.0072	1.02 ± 0.011	1.04 ± 0.013	1.11 ± 0.013	1.05 ± 0.046	1.04 ± 0.054	0.982 ± 0.029
OSHN BONE	1.01 ± 0.028	1 ± 0.029	1 ± 0.025	0.993 ± 0.05	0.991 ± 0.02	0.206 ± 0.0076	0.407 ± 0.036	0.218 ± 0.011	1.091 ± 0.005	1.073 ± 0.0079	1.09 ± 0.022	1.07 ± 0.018	1.12 ± 0.037	1.1 ± 0.018	1.13 ± 0.02	1.08 ± 0.032
PCI30 HEADNECK	0.891 ± 0.04	0.873 ± 0.077	1.01 ± 0.067	1.04 ± 0.084	0.964 ± 0.035	0.625 ± 0.032	0.567 ± 0.016	0.564 ± 0.0087	1.07 ± 0.085	1.04 ± 0.069	1.08 ± 0.1	1.07 ± 0.03	1.09 ± 0.062	0.931 ± 0.065	0.81 ± 0.06	0.781 ± 0.016
RDES SOFT TISSUE	1.25 ± 0.15	1.26 ± 0.18	1.3 ± 0.047	1.3 ± 0.079	1.07 ± 0.17	0.245 ± 0.018	0.249 ± 0.025	0.195 ± 0.0049	1.27 ± 0.17	1.18 ± 0.037	1.23 ± 0.067	1.02 ± 0.19	1.02 ± 0.24	1.02 ± 0.21	1.67 ± 0.18	1.57 ± 0.2
S68 BREAST	0.875 ± 0.16	0.86 ± 0.083	0.973 ± 0.18	0.946 ± 0.11	0.487 ± 0.057	0.472 ± 0.024	0.529 ± 0.081	0.466 ± 0.13	0.75 ± 0.08	0.809 ± 0.025	1.13 ± 0.062	1.18 ± 0.033	1.01 ± 0.091	1.19 ± 0.2	0.744 ± 0.043	0.79 ± 0.29
SCC003 HEADNECK	0.911 ± 0.056	0.889 ± 0.096	1.05 ± 0.06	1.02 ± 0.027	0.988 ± 0.043	0.636 ± 0.063	0.425 ± 0.035	0.397 ± 0.076	1.12 ± 0.06	1.02 ± 0.064	1.11 ± 0.036	1.08 ± 0.086	1.13 ± 0.14	1.08 ± 0.076	1.06 ± 0.081	0.884 ± 0.084
SCC36 HEADNECK	1.01 ± 0.1	1.04 ± 0.15	1.13 ± 0.16	1.12 ± 0.066	0.945 ± 0.12	0.731 ± 0.052	0.428 ± 0.048	0.431 ± 0.051	1.02 ± 0.1	1.01 ± 0.015	1.17 ± 0.064	1.11 ± 0.056	1.1 ± 0.084	1.07 ± 0.025	0.923 ± 0.094	0.897 ± 0.025
SCC47 HEADNECK	0.82 ± 0.0084	0.815 ± 0.033	1.01 ± 0.099	0.974 ± 0.1	1.01 ± 0.086	0.904 ± 0.058	0.542 ± 0.02	0.521 ± 0.047	1.12 ± 0.087	1.05 ± 0.03	1.13 ± 0.072	1.1 ± 0.013	1.17 ± 0.065	1.1 ± 0.091	1.1 ± 0.035	1.04 ± 0.048
SG27 HEADNECK	1.04 ± 0.03	1.05 ± 0.042	0.868 ± 0.14	1.04 ± 0.079	0.948 ± 0.054	0.872 ± 0.043	0.843 ± 0.061	0.919 ± 0.05	1.18 ± 0.081	1.07 ± 0.1	1.02 ± 0.025	0.956 ± 0.086	1.08 ± 0.15	1.09 ± 0.1	1.06 ± 0.048	1.1 ± 0.33
SG28 HEADNECK	1.06 ± 0.12	1.03 ± 0.036	0.972 ± 0.15	0.991 ± 0.13	0.949 ± 0.11	0.828 ± 0.015	0.682 ± 0.048	0.601 ± 0.075	1.1 ± 0.069	1.1 ± 0.13	1.08 ± 0.15	0.955 ± 0.05	1.02 ± 0.16	1.02 ± 0.13	1 ± 0.058	1.07 ± 0.051
SG31 HEADNECK	0.909 ± 0.13	1.05 ± 0.18	1.03 ± 0.26	0.808 ± 0.041	0.913 ± 0.052	0.705 ± 0.069	0.749 ± 0.076	0.717 ± 0.1	1.22 ± 0.17	1.08 ± 0.19	0.988 ± 0.21	0.911 ± 0.13	0.976 ± 0.071	0.977 ± 0.24	1.08 ± 0.13	1.14 ± 0.19
SIHA CERVIX	0.799 ± 0.044	0.859 ± 0.034	0.933 ± 0.053	0.978 ± 0.042	1.01 ± 0.064	0.801 ± 0.046	0.631 ± 0.046	0.531 ± 0.034	1.09 ± 0.085	1.12 ± 0.087	1.17 ± 0.11	1.11 ± 0.041	1.1 ± 0.039	1.13 ± 0.11	1.12 ± 0.15	1.02 ± 0.067
SJSA1 BONE	1.06 ± 0.086	1.08 ± 0.061	1.08 ± 0.047	1.03 ± 0.016	1.07 ± 0.026	0.95 ± 0.019	0.6 ± 0.013	0.531 ± 0.014	1 ± 0.037	1.01 ± 0.099	1.028 ± 0.0059	1.04 ± 0.049	1.08 ± 0.028	1.12 ± 0.013	0.922 ± 0.037	0.88 ± 0.036
SKBR3 BREAST	1.09 ± 0.12	0.942 ± 0.2	1.07 ± 0.18	1 ± 0.16	0.762 ± 0.06	0.892 ± 0.14	1.13 ± 0.039	0.865 ± 0.17	1.04 ± 0.16	1.12 ± 0.066	0.958 ± 0.06	0.987 ± 0.22	0.923 ± 0.056	0.892 ± 0.12	0.82 ± 0.085	0.855 ± 0.067
SNU475 LIVER	0.9533 ± 0.0031	0.962 ± 0.038	0.9607 ± 0.0076	0.899 ± 0.051	0.902 ± 0.035	0.804 ± 0.035	0.686 ± 0.079	0.529 ± 0.041	1.02 ± 0.037	1.01 ± 0.041	1.06 ± 0.026	1.01 ± 0.073	1.07 ± 0.02	1.03 ± 0.088	1.04 ± 0.021	0.917 ± 0.04
SUM44 BREAST	1.04 ± 0.039	0.997 ± 0.013	1.09 ± 0.028	1.06 ± 0.13	1.09 ± 0.025	1.27 ± 0.045	1.4 ± 0.056	1.26 ± 0.051	0.984 ± 0.044	1.01 ± 0.028	1.03 ± 0.062	0.956 ± 0.044	1.08 ± 0.1	1.05 ± 0.043	1.08 ± 0.068	1.086 ± 0.0082
SUM149 BREAST	0.949 ± 0.11	1.02 ± 0.11	1.07 ± 0.089	0.986 ± 0.056	0.67 ± 0.074	0.389 ± 0.071	0.267 ± 0.029	0.224 ± 0.032	1.15 ± 0.042	1.09 ± 0.049	1.04 ± 0.076	0.943 ± 0.11	1.1 ± 0.065	1.14 ± 0.064	0.871 ± 0.024	0.88 ± 0.07
SUM149.B1*.S BREAST	1 ± 0.017	1.01 ± 0.037	0.979 ± 0.017	0.976 ± 0.038	0.938 ± 0.047	0.685 ± 0.049	0.569 ± 0.024	0.499 ± 0.043	1.13 ± 0.034	1.07 ± 0.013	1.11 ± 0.018	1.07 ± 0.019	1.19 ± 0.056	1.22 ± 0.058	1.139 ± 0.011	1.08 ± 0.021
SUM159 BREAST	1.11 ± 0.22	1.08 ± 0.16	1.1 ± 0.21	1.07 ± 0.16	0.956 ± 0.085	0.72 ± 0.027	0.56 ± 0.014	0.436 ± 0.0095	0.932 ± 0.26	0.942 ± 0.23	0.951 ± 0.18	0.893 ± 0.28	0.916 ± 0.3	0.842 ± 0.43	0.943 ± 0.27	0.925 ± 0.28
SYO1 SYNOVIAL	0.943 ± 0.061	0.955 ± 0.024	0.93 ± 0.08	0.893 ± 0.078	0.388 ± 0.06	0.266 ± 0.027	0.2212 ± 0.0014	0.237 ± 0.013	0.989 ± 0.024	0.966 ± 0.021	0.984 ± 0.024	1.02 ± 0.054	0.995 ± 0.018	0.98 ± 0.066	0.792 ± 0.061	0.706 ± 0.055
T47D BREAST	0.9824 ± 0.0044	1.02 ± 0.014	1.03 ± 0.032	1.05 ± 0.046	1.16 ± 0.025	1.09 ± 0.013	1.12 ± 0.018	1.07 ± 0.013	1.05 ± 0.019	1.039 ± 0.0056	1.09 ± 0.022	1.06 ± 0.022	1.17 ± 0.014	1.08 ± 0.045	1.16 ± 0.042	1.11 ± 0.028
U2OS BONE	1.07 ± 0.016	1.02 ± 0.04	1.04 ± 0.061	1.01 ± 0.014	0.725 ± 0.015	0.483 ± 0.0044	0.314 ± 0.016	0.225 ± 0.011	1.02 ± 0.044	1.01 ± 0.04	1.06 ± 0.021	1.06 ± 0.033	1.06 ± 0.034	1.06 ± 0.033	0.979 ± 0.032	0.981 ± 0.062
VCAP PROSTATE	1.06 ± 0.051	1.05 ± 0.086	1.08 ± 0.11	0.935 ± 0.053	0.681 ± 0.075	0.603 ± 0.016	0.433 ± 0.021	0.327 ± 0.038	1.08 ± 0.018	1.08 ± 0.025	1.14 ± 0.076	1.17 ± 0.053	1.1 ± 0.13	1.18 ± 0.025	0.829 ± 0.11	0.773 ± 0.0044
VP229 BREAST	1.08 ± 0.051	1.1 ± 0.12	1.02 ± 0.15	0.999 ± 0.04	0.917 ± 0.046	0.548 ± 0.016	0.624 ± 0.031	0.556 ± 0.057	1.1 ± 0.1	1.05 ± 0.04	1.06 ± 0.034	0.852 ± 0.093	0.995 ± 0.055	0.978 ± 0.15	0.932 ± 0.037	0.776 ± 0.075
YAMATO SYNOVIAL	1.06 ± 0.048	1.02 ± 0.049	1.1 ± 0.061	1.14 ± 0.058	0.994 ± 0.005	0.738 ± 0.023	0.622 ± 0.022	0.543 ± 0.058	1.2 ± 0.07	1.14 ± 0.065	1.28 ± 0.11	1.23 ± 0.14	1.3 ± 0.061	1.25 ± 0.047	0.984 ± 0.034	0.935 ± 0.056
ZR751 BREAST	0.874 ± 0.18	0.927 ± 0.062	0.923 ± 0.12	0.925 ± 0.04	0.774 ± 0.1	1.04 ± 0.094	0.815 ± 0.062	0.897 ± 0.038	1.07 ± 0.19	1.07 ± 0.057	0.923 ± 0.2	0.953 ± 0.15	1.13 ± 0.059	1.04 ± 0.11	1.23 ± 0.12	1.01 ± 0.054
